Laboratory results as given in PubChem BioAssay AID330 (DTP/NCI, 2004).
Values joined by “and” are separate entries in the source; they are usually repeats but may differ in a detail not shown here. Equal values may be shown once. Inconclusive results and toxic doses are left out.

Tested on: P388 leukemia ip, CD2F1 mice, survival T/C
Test: NCI In Vivo Anticancer Drug Screen. Data for tumor model P388 Leukemia (intraperitoneal) in CD2F1 (CDF1) mice
Details: endpoint: median survival time, higher = longer survival
Outline: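 Mice carrying the transplanted tumor received test compound or vehicle. Survival was recorded in each group, and the value is the treated-group measurement divided by that of the vehicle-treated control group.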

[1] = dose: 50.0 mg/kg/injection, schedule: Q01DX005 (ip), vehicle: saline with Tween-80
[2] = dose: 50.0 mg/kg/injection, schedule: Q04DX003 (ip), vehicle: saline with Tween-80
[3] = dose: 50.0 mg/kg/injection, schedule: Q01DX009 (ip), vehicle: saline with Tween-80
[4] = dose: 100.0 mg/kg/injection, schedule: Q01DX009 (ip), vehicle: saline with Tween-80
[5] = dose: 200.0 mg/kg/injection, schedule: Q01DX009 (ip), vehicle: saline with Tween-80
[6] = dose: 6.25 mg/kg/injection, schedule: Q01DX009 (ip), vehicle: saline with Tween-80
[7] = dose: 12.5 mg/kg/injection, schedule: Q01DX009 (ip), vehicle: saline with Tween-80
[8] = dose: 25.0 mg/kg/injection, schedule: Q01DX009 (ip), vehicle: saline with Tween-80
[9] = dose: 50.0 mg/kg/injection, schedule: Q01DX009 (ip), vehicle: saline
[10] = dose: 100.0 mg/kg/injection, schedule: Q01DX005 (ip), vehicle: saline with Tween-80

## CN1C(=O)C(CC(N)=O)NC1=S (stereo not given)
dose: 60.0 mg/kg/injection, schedule: Q01DX005 (ip), vehicle: Klucel (hydroxypropylcellulose) (HPC)
  T/C: 95 % of control
dose: 120.0 mg/kg/injection, schedule: Q01DX005 (ip), vehicle: Klucel (hydroxypropylcellulose) (HPC)
  T/C: 86 % of control
dose: 240.0 mg/kg/injection, schedule: Q01DX005 (ip), vehicle: Klucel (hydroxypropylcellulose) (HPC)
  T/C: 93 % of control

## NC(N)=NC(N)=Nc1ccc2c(Cl)c(Cl)ccc2c1
dose: 6.0 mg/kg/injection, schedule: Q01DX005 (ip), vehicle: saline with Tween-80
  T/C: 96 % of control
dose: 12.0 mg/kg/injection, schedule: Q01DX005 (ip), vehicle: saline with Tween-80
  T/C: 111 % of control
dose: 22.0 mg/kg/injection, schedule: Q04DX003 (ip), vehicle: saline with Tween-80
  T/C: 104 % of control
dose: 25.0 mg/kg/injection, schedule: Q01DX005 (ip), vehicle: saline with Tween-80
  T/C: 104 % of control
dose: 25.0 mg/kg/injection, schedule: Q04DX003 (ip), vehicle: saline with Tween-80
  T/C: 120 % of control
dose: 33.0 mg/kg/injection, schedule: Q04DX003 (ip), vehicle: saline with Tween-80
  T/C: 100 % of control
[1]
  T/C: 93 % of control
[2]
  T/C: 118 % of control

## Oc1cc2c3c(c1)-c1c(ccc(O)c1O)CC3NCC2 (stereo not given)
dose: 3.13 mg/kg/injection, schedule: Q04DX003 (ip), vehicle: DMSO
  T/C: 99 % of control
dose: 6.25 mg/kg/injection, schedule: Q04DX003 (ip), vehicle: DMSO
  T/C: 103 % of control
dose: 12.5 mg/kg/injection, schedule: Q04DX003 (ip), vehicle: DMSO
  T/C: 109 % of control
dose: 25.0 mg/kg/injection, schedule: Q04DX003 (ip), vehicle: DMSO
  T/C: 110 % of control
dose: 50.0 mg/kg/injection, schedule: Q04DX003 (ip), vehicle: DMSO
  T/C: 117 % of control

## NC1=NS(=O)(=O)c2ccccc2N1c1ccccc1
dose: 100.0 mg/kg/injection, schedule: Q04DX002 (ip), vehicle: saline with Tween-80
  T/C: 97 % of control
dose: 200.0 mg/kg/injection, schedule: Q04DX002 (ip), vehicle: saline with Tween-80
  T/C: 103 % of control
dose: 400.0 mg/kg/injection, schedule: Q04DX002 (ip), vehicle: saline with Tween-80
  T/C: 92 % of control

## CCOn1nnc2ccccc21
[3]
  T/C: 92 % of control
[4]
  T/C: 95 % of control
[5]
  T/C: 92 % of control

## OCCC1CCN(CC/C=C2/c3ccc(F)cc3Sc3ccc(C(F)(F)F)cc32)CC1
dose: 25.0 micrograms/kg/injection, schedule: Q01DX001 (ip), vehicle: saline
  T/C: 99 % of control
dose: 50.0 micrograms/kg/injection, schedule: Q01DX001 (ip), vehicle: saline
  T/C: 114 % of control and 96 % of control
dose: 100.0 micrograms/kg/injection, schedule: Q01DX001 (ip), vehicle: saline
  T/C: 117 % of control

## C=CC(=O)NCCSSCCNC(=O)C=C
[6]
  T/C: 108 % of control
[7]
  T/C: 99 % of control
[8]
  T/C: 93 % of control
[4]
  T/C: 98 % of control

## CCC1=C[C@H]2CN(CCc3c([nH]c4ccccc34)[C@@](C(=O)OC)(c3cc4c(cc3OC)N(C)[C@H]3[C@@](O)(C(=O)NC)[C@H](OC(C)=O)[C@]5(CC)C=CCN6CC[C@]43[C@@H]65)C2)C1
dose: 0.02 mg/kg/injection, schedule: Q01DX009 (ip), vehicle: water
  T/C: 102 % of control
dose: 0.03 mg/kg/injection, schedule: Q01DX009 (ip), vehicle: water
  T/C: 100 % of control
dose: 0.12 mg/kg/injection, schedule: Q04DX003 (ip), vehicle: water
  T/C: 151 % of control
dose: 0.13 mg/kg/injection, schedule: Q01DX009 (ip), vehicle: water
  T/C: 114 % of control and 203 % of control
dose: 0.25 mg/kg/injection, schedule: Q01DX001 (ip), vehicle: water
  T/C: 110 % of control
dose: 0.25 mg/kg/injection, schedule: Q01DX009 (ip), vehicle: water
  T/C: 220 % of control and 192 % of control and 214 % of control
dose: 0.25 mg/kg/injection, schedule: Q04DX003 (ip), vehicle: water
  T/C: 187 % of control
dose: 0.5 mg/kg/injection, schedule: Q01DX001 (ip), vehicle: water
  T/C: 119 % of control
dose: 0.5 mg/kg/injection, schedule: Q04DX003 (ip), vehicle: water
  T/C: 214 % of control
dose: 1.0 mg/kg/injection, schedule: Q01DX009 (ip), vehicle: water
  T/C: 87 % of control
dose: 1.0 mg/kg/injection, schedule: Q04DX003 (ip), vehicle: water
  T/C: 232 % of control
dose: 2.0 mg/kg/injection, schedule: Q01DX001 (ip), vehicle: water
  T/C: 150 % of control
dose: 4.0 mg/kg/injection, schedule: Q01DX001 (ip), vehicle: water
  T/C: 154 % of control
dose: 8.0 mg/kg/injection, schedule: Q01DX001 (ip), vehicle: water
  T/C: 180 % of control

## CN1C(=O)CN=C(c2ccccn2)c2cc(Cl)ccc21
dose: 75.0 mg/kg/injection, schedule: Q01DX001 (ip), vehicle: saline with Tween-80
  T/C: 104 % of control
dose: 150.0 mg/kg/injection, schedule: Q01DX001 (ip), vehicle: saline with Tween-80
  T/C: 104 % of control
dose: 300.0 mg/kg/injection, schedule: Q01DX001 (ip), vehicle: saline with Tween-80
  T/C: 104 % of control

## CCN(CC)P(=O)(c1cccn1C)c1cccn1C
[3]
  T/C: 100 % of control
[4]
  T/C: 102 % of control
[5]
  T/C: 97 % of control

## CCO/C(=C\C(=O)c1ccccc1)c1ccccc1
[2]
  T/C: 100 % of control
dose: 100.0 mg/kg/injection, schedule: Q04DX003 (ip), vehicle: saline with Tween-80
  T/C: 100 % of control
dose: 200.0 mg/kg/injection, schedule: Q04DX003 (ip), vehicle: saline with Tween-80
  T/C: 100 % of control

## CCCCCCCCCCCCCC[N+]1([O-])CCCCC1
dose: 12.5 mg/kg/injection, schedule: Q01DX009 (ip), vehicle: saline
  T/C: 100 % of control
dose: 25.0 mg/kg/injection, schedule: Q01DX009 (ip), vehicle: saline
  T/C: 92 % of control
[9]
  T/C: 106 % of control and 91 % of control

## CCCN(C)C(=O)N(CCCl)N=O
dose: 16.0 mg/kg/injection, schedule: Q01DX001 (ip), vehicle: water
  T/C: 166 % of control
dose: 32.0 mg/kg/injection, schedule: Q01DX001 (ip), vehicle: water
  T/C: 240 % of control

## C=Cc1c(C)c(OC(C)=O)cc2c1-c1ccc(OC(C)=O)c(C)c1CC2
dose: 2.25 mg/kg/injection, schedule: Q01DX009 (ip), vehicle: Klucel (hydroxypropylcellulose) (HPC)
  T/C: 103 % of control
dose: 4.5 mg/kg/injection, schedule: Q01DX009 (ip), vehicle: Klucel (hydroxypropylcellulose) (HPC)
  T/C: 100 % of control
dose: 9.0 mg/kg/injection, schedule: Q01DX009 (ip), vehicle: Klucel (hydroxypropylcellulose) (HPC)
  T/C: 94 % of control
dose: 18.0 mg/kg/injection, schedule: Q01DX009 (ip), vehicle: Klucel (hydroxypropylcellulose) (HPC)
  T/C: 100 % of control

## C=C1C(C)C2C(Cc3ccccc3)NC(=O)C23C(OC(C)=O)/C=C/C(C)(O)CC(C)C/C=C/C3C1O (stereo not given)
dose: 3.13 mg/kg/injection, schedule: Q01DX009 (ip), vehicle: saline with Tween-80
  T/C: 121 % of control
[6]
  T/C: 124 % of control

## CC/C(=C(/CC)c1ccc(OC(=O)N(CCCl)CCCl)cc1)c1ccc(OC(=O)N(CCCl)CCCl)cc1
[9]
  T/C: 97 % of control
dose: 100.0 mg/kg/injection, schedule: Q01DX009 (ip), vehicle: saline
  T/C: 99 % of control
dose: 200.0 mg/kg/injection, schedule: Q01DX009 (ip), vehicle: saline
  T/C: 99 % of control

## CCCCCCCCCCCCCCCC(=O)N(CCCN(CC)CC)C(C)CCCN(CC)CC (stereo not given)
dose: 0.38 mg/kg/injection, schedule: Q01DX009 (ip), vehicle: water
  T/C: 96 % of control
dose: 0.75 mg/kg/injection, schedule: Q01DX009 (ip), vehicle: water
  T/C: 98 % of control
dose: 1.5 mg/kg/injection, schedule: Q01DX009 (ip), vehicle: water
  T/C: 98 % of control
dose: 3.0 mg/kg/injection, schedule: Q01DX009 (ip), vehicle: water
  T/C: 95 % of control
dose: 6.0 mg/kg/injection, schedule: Q01DX009 (ip), vehicle: water
  T/C: 92 % of control

## O=C(O)c1c(CS(F)(F)(F)(F)F)cc(=O)oc1CS(F)(F)(F)(F)F
[1]
  T/C: 106 % of control
[10]
  T/C: 105 % of control

## CCN(CC)CCNc1c(OC)cc(C)c2sc3ccccc3c(=O)c12
[3]
  T/C: 115 % of control
[4]
  T/C: 117 % of control

## CC(C)NS(=O)(=O)OCC(O)(CC(Cl)(Cl)Cl)c1ccccc1 (stereo not given)
[3]
  T/C: 105 % of control
[4]
  T/C: 109 % of control and 112 % of control
[5]
  T/C: 105 % of control

## C/C=C/c1cc2c(c(=O)o1)C(=O)[C@@H](O)[C@H](C)O2
[7]
  T/C: 101 % of control
[8]
  T/C: 101 % of control
dose: 44.0 mg/kg/injection, schedule: Q01DX009 (ip), vehicle: saline with Tween-80
  T/C: 112 % of control
[3]
  T/C: 110 % of control
dose: 66.0 mg/kg/injection, schedule: Q01DX009 (ip), vehicle: saline with Tween-80
  T/C: 121 % of control

## CCCCCNc1ncnc2[nH]ncc12
[1]
  T/C: 96 % of control
[10]
  T/C: 102 % of control
